According to the OPERA property sets (Mansouri et al. 2018):
Where a SMILES comes first, the peptide text is derived from it.

| SMILES | logP |
| --- | --- |
| CCC(C)C(NC(=O)C(N)Cc1ccccc1)C(=O)NC(C(=O)O)C(C)O (stereo not drawn) (H-Phe-Ile-Thr-OH; configuration not given here) | -1.95 |
| O=C1CCC(c2ccc(-n3ccnc3)cc2)=NN1 | 0.96 |
| CCN(CC)CC(=O)Nc1ccc(N)cc1 | 1.09 |
| Oc1cccc(CNc2ncnc3nc[nH]c23)c1 | 1.56 |
| O=S(=O)(NC(=S)NC1CCCCC1)c1cnccc1NC1CCCCCC1 | 4.71 |
| CN1CCN2c3ccccc3Cc3ccccc3C2C1 (centres undefined) | 4.24 |
| CCC(C)C(NC(=O)CNC(=O)C(C)NC(=O)CNC(=O)C(N)Cc1ccccc1)C(=O)O (centres undefined) (H-FGAGI-OH; configuration not given here) | -1.87 |
| COc1ccc(O)c(C2=NC(C)(C(=O)O)CS2)c1 (centres undefined) | 1.8 |
| c1ccc2c(c1)OCC(c1ncc[nH]1)O2 (centres undefined) | 1.76 |
| CC1CCN(CC2CN=C(N)O2)CC1 (centres undefined) | 0.91 |
| CC(C)(Cc1c[nH]c2ccccc12)NCC(O)CON=C(C1CC1)C1CC1 (centres undefined) | 3.29 |
| Nc1nnnn1-c1cc(Cl)c(Cl)cc1Cl | 2.3 |
| CCN(CC)c1ccc(NC(=O)N(C)OC)cc1 | 2.33 |
| C/C(=C\CNc1ncnc2[nH]cnc12)CO | 0.6 |
| O=c1cc(-c2ccc(Cl)cc2)oc2ccccc12 | 3.89 |
| Cc1oc2ccc3ccc(=O)oc3c2c1C | 2.97 |
| COc1coc(CCl)cc1=O | 0.16 |
| CCCCCOCCCNc1[nH]cnc2ncnc1-2 | 2.74 |
| CCOC(=O)C1=C(C)NC(C)=C(C(=O)OC)C1c1ccccc1OCOC (centres undefined) | 3.78 |
| CC(=O)c1cc2cccc3ccc4cccc1c4c32 | 4.16 |
| CCCNC(=O)CNC(=O)C=[N+]=[N-] | -0.24 |
| Cc1cc(=O)[nH]nc1/C=C/c1ccc(-n2ccnc2)cc1 | 1.71 |
| CCC(C)c1cnc(CC(C)C)c(=O)n1O (centres undefined) | 1.81 |
| C=CCON=C(C)c1cccc(Oc2nc(OC)cc(OC)n2)c1C(=O)OC | 3.13 |
| O=c1cc(CCl)occ1O | 0.64 |

| SMILES | logP |
| --- | --- |
| O=S(=O)(NC(=S)N1CCCCC1)c1cnccc1NC1CCCCCC1 | 4.15 |
| O=C(O)c1cc(O)c(Br)c(O)c1 | 1.75 |
| CC(C)CC(NC(=O)C(NC(=O)C(CC(C)C)NC(=O)C(N)C(C)C)C(C)C)C(=O)O (centres undefined) (H-VLVL-OH; configuration not given here) | -1.23 |
| Cc1cc2c(o1)c(C)cc1c(C)cc(=O)oc12 | 3.28 |
| CN(C)c1cccc2nc(N)nc(N)c12 | 1.65 |
| Cc1ccc2c(c1)C(=O)N(CCO[N+](=O)[O-])CO2 | 2.41 |
| O=C(NC(Cc1c[nH]c2ccccc12)C(=O)O)OCC1c2ccccc2-c2ccccc21 (centres undefined) | 4.93 |
| COc1ccc2cc(C(C)C(=O)OCCCOC(C)=O)ccc2c1 (centres undefined) | 3.3 |
| Cc1nccc2c3ccccc3n(C)c12 | 3.01 |
| CCN(CC)C(=O)c1cn2c(C)c(C)nc2c2c1CCC(c1ccccc1)O2 (centres undefined) | 4 |
| Nc1ccc(CNC(=O)C2CCCN2C(=O)C(N)C(C2CCCCC2)C2CCCCC2)cn1 (centres undefined) | 4.61 |
| CC(=O)NC(CCCN(Cc1ccccc1)C(=O)N(C)N=O)C(=O)NCc1ccccc1 (centres undefined) | 2 |
| COC(=O)N1CCN(C(=O)Cc2ccc(Cl)c(Cl)c2)C(CN2CCCC2)C1 (centres undefined) | 4.1 |
| CCN(CC)CCSC(=NO)c1noc(-c2ccccc2)n1 | 3.05 |
| CC(C)CC(NC(=O)C(CC(C)C)NC(=O)C(N)CO)C(=O)O (stereo not drawn) (H-Ser-Leu-Leu-OH; configuration not given here) | -2.03 |
| CC1(C)OC23CC1CCC2CCCC3(C)O (centres undefined) | 3.57 |
| Cc1oc2c(C)cc3ccc(=O)oc3c2c1C | 3.34 |
| COc1cccc2nc(N)nc(N)c12 | 1.18 |
| Cc1coc2c(C)c3oc(=O)cc(C)c3cc12 | 3.25 |
| Cc1cccc(C)c1OCCN(C)C | 2.74 |
| C=CCNc1ncnc2nc[nH]c12 | 1.09 |
| O=C1C(NCCO)=C(N2CC2)C(=O)C(NCCO)=C1N1CC1 | -1.47 |
| Nc1nc(N)c2c([N+](=O)[O-])cccc2n1 | 1.19 |
| Cn1cnc([N+](=O)[O-])c1S(N)(=O)=O | -0.74 |
| CCOC(=O)C1=C(C)NC(C)=C(C(=O)OCC)C1c1cccc2c1OCO2 | 4.32 |

| SMILES | logP |
| --- | --- |
| CCCCCC(O)C=CC1C(O)CC(O)C1CC=CCCCC(=O)OCc1ccccc1 (centres undefined) | 4.11 |
| COc1ccc([N+](=O)[O-])c(C)c1 | 2.32 |
| Cc1nc2c3c(c(C(=O)N(C)C)cn2c1C)CCC(c1ccc(F)cc1)O3 (centres undefined) | 3.5 |
| NC(Cc1c[nH]c2ccccc12)C(=O)NC(Cc1ccccc1)C(=O)O (centres undefined) | -0.47 |
| CC(=O)NC1=C(Cl)C(=O)c2ccccc2C1=O | 1.42 |
| COc1ccc(Nc2nc(N)nc(O)n2)cc1OC | 1.76 |
| COC1CC(OC2C(C)OC(OC3CCC4(C)C(CCC5C4CC(O)C4(C)C(C6=CC(=O)OC6)CCC54O)C3)CC2OC)OC(C)C1OC1CC(O)C(O)C(C)O1 (centres undefined) | 2.14 |
| Nc1nnnn1-c1cccc([N+](=O)[O-])c1 | 0.67 |
| CCOP(=O)(OCC)C(C)(C)[N+]([O-])=Cc1cc[n+]([O-])cc1 | -0.74 |
| COc1ccccc1CNC1CCCNC1c1ccccc1 (centres undefined) | 3.1 |
| CC(C)CC(NC(=O)C(C)N)C(=O)NC(CC(C)C)C(=O)NCC(=O)NC(Cc1ccccc1)C(=O)O (centres undefined) (H-ALLGF-OH; configuration not given here) | -0.63 |
| CC1CCC2OC2(C)C12CCC(C(C)(C)O)C2 (centres undefined) | 2.7 |
| CCCCCOC1CCC(NC(=O)NC23CC4CC(CC(C4)C2)C3)CC1 (centres undefined) | 5 |
| CCCCCCCCCCCCN=C=S | 7.13 |
| O=C(Cc1ccccc1)OC1Cc2c(O)cc(O)cc2OC1c1ccc(O)c(O)c1 (centres undefined) | 3.09 |
| COC(=O)C=CCn1cc([N+](=O)[O-])nc1C | 0.16 |
| CCOc1cc2ncnc(Nc3cccc(Br)c3)c2cc1OCC | 4.4 |
| CC(C)(C)Nc1nc(N)nc(O)n1 | 2.07 |
| O=C1c2cc(O)ccc2OCN1CCO[N+](=O)[O-] | 1.63 |
| COc1ccc(Br)cc1CNC1CCCNC1c1ccccc1 (centres undefined) | 4.2 |
| CC(C)OC(=O)C(=Cc1ccccc1)S(=O)(=O)c1ccc([N+](=O)[O-])cc1 | 3.62 |
| CCNc1nc(O)nc(NCC)n1 | 2.29 |
| CC(C)CC(NC(=O)C1CCCN1)C(=O)O (stereo not drawn) (H-Pro-Leu-OH; configuration not given here) | -2.41 |
| COc1cc2ncnc(Nc3ccc(F)cc3)c2cc1OC | 2.87 |
| CC(=O)Nc1ccc(F)cc1F | 1.5 |

| SMILES | logP |
| --- | --- |
| CC(C)(C)[N+]([O-])=Cc1ccc(Cl)cc1 | 2.4 |
| CC1=CCC(C)(C)C=CCC2(C)OC2CC1 (centres undefined) | 4.45 |
| COC1=C(Cl)C(=O)c2ccccc2C1=O | 2.15 |
| Fc1ccc(CNc2[nH]cnc3ncnc2-3)cc1 | 2.34 |
| CC(C)CC(NC(=O)C(C)NC(=O)C(C)NC(=O)C(C)NC(=O)C(N)Cc1ccccc1)C(=O)O (centres undefined) (H-FAAAL-OH; configuration not given here) | -2.23 |
| O=C(O)Cc1ccc2c(c1)SCc1ccccc1C2=O | 2.97 |
| CCCCNCc1ccc(C)cc1 | 3.49 |
| Clc1cccc(Oc2c(Cl)cc(Cl)cc2Cl)c1 | 6.05 |
| Cc1c[nH]c(Cc2ccc(OCC(O)CNC(C)(C)C)cc2)n1 (centres undefined) | 1.4 |
| O=C1C=C(N2CCOCC2)C(=O)N1c1ccc(Cl)cc1 | 2.3 |
| CC(C)NC(=NC#N)NS(=O)(=O)c1cnccc1NC1CCCCCCC1 | 2.58 |
| COc1ccc(-c2cn3cccnc3n2)c(OC)c1 | 1.94 |
| COC(=O)C(C)NP(=O)(OCC1C=CC(n2cc(C)c(=O)[nH]c2=O)O1)Oc1ccc(I)cc1 (centres undefined) | 1.93 |
| CC(C)C(NC(=O)C(N)Cc1ccccc1)C(=O)NC(Cc1ccccc1)C(=O)O (stereo not drawn) (H-Phe-Val-Phe-OH; configuration not given here) | -0.76 |
| CC12CCC(c3c1ssc3=S)C2(C)C (centres undefined) | 3.8 |
| Cc1c(O)c(=O)ccn1CCCO | -0.88 |
| O=C(O)CCCCON=C(c1cncnc1)c1cccc(C(F)(F)F)c1 | 3.26 |
| C=CC(=O)OCC(COC(=O)C=C)(COC(=O)C=C)COC(=O)C=C | 2.11 |
| CC(N)C(=O)NC(Cc1c[nH]c2ccccc12)C(=O)O (centres undefined) | -2.21 |
| Cc1c(C(=O)O)cccc1[N+](=O)[O-] | 2.16 |
| O=Cc1ccc2ccc3cccc4ccc1c2c34 | 4.23 |
| CC(CO)CNc1[nH]cnc2ncnc1-2 (centres undefined) | 0.61 |
| N#CNc1ccccc1 | 1.87 |
| CN1CC(O)N(C(=O)NCCCl)C1=O (centres undefined) | 0.71 |
| C=CC(=O)OCCOCCO | -0.3 |

| SMILES | logP |
| --- | --- |
| CC(C)N(CC1CN=C(N)O1)C(C)C (centres undefined) | 0.98 |
| NC1=NCC(CN2CCOCC2)O1 (centres undefined) | -0.22 |
| CC(CO)CCNc1ncnc2nc[nH]c12 (centres undefined) | 1.16 |
| CCC(C)C(N)C(=O)NC(C(=O)NC(C(=O)NC(C(=O)O)C(C)C)C(C)C)C(C)CC (centres undefined) (H-IIVV-OH; configuration not given here) | -1.41 |
| CC(C)CC(N)C(=O)NC(CC(C)C)C(=O)NC(C(=O)NC(Cc1ccccc1)C(=O)O)C(C)C (centres undefined) (H-LLVF-OH; configuration not given here) | -0.25 |
| OCC1OC(n2cnc3c(NCCCc4ccccc4)ncnc32)C(O)C1O (centres undefined) | 1.92 |
| CCCCCNC(=O)N1C(=O)N(C)CC1O (centres undefined) | 1.75 |
| O=C1c2cc([N+](=O)[O-])ccc2OCN1CCO[N+](=O)[O-] | 1.66 |
| CC1(C(Cl)Cl)C2C(Cl)C(Cl)C1(C(Cl)Cl)C(Cl)C2Cl (centres undefined) | 5.52 |
| CC1=C2C3OC(=O)C(C)C3C(O)C(O)C2(C)C=CC1=O (centres undefined) | -0.7 |
| N#Cc1cccc(Cn2cccn2)c1 | 1.74 |
| COc1ccc(C2Cc3c(OC)cccc3N(CCN(C)C)C(=O)C2OC(C)=O)cc1 (centres undefined) | 3.9 |
| OCc1cnc(O)nc1O | -1.94 |
| O=c1cc(CI)occ1O | 0.67 |
| COc1ccc2c(C)cc(=O)oc2c1 | 1.89 |
| Cc1cccc(-n2nnnc2N)c1 | 1.24 |
| O=C(NC(Cc1c[nH]c2ccccc12)C(=O)O)OCc1ccccc1 (centres undefined) | 3.2 |
| Nc1ccc2cc3ccccc3nc2c1CO | 1.77 |
| c1ccc2c(c1)OCC(C1=NCCN1)O2 (centres undefined) | 1.63 |
| CN(C)CCCCc1ccccc1 | 3.15 |
| CN(C)CCOC(=O)c1ccc(S(C)(=O)=O)cc1 | 0.45 |
| Nc1nnnn1-c1ccc(Cl)cc1 | 1.41 |
| CC(C)CC(NC(=O)C(NC(=O)C(CO)NC(=O)C(CC(C)C)NC(=O)CN)C(C)C)C(=O)O (centres undefined) (H-GLSVL-OH; configuration not given here) | -1.64 |
| CCOC(=O)C1=C(C)NC(C)=C(C(=O)OC)C1c1cc(OC)c(O)c(OC)c1 (centres undefined) | 2.83 |
